In patent publication US11407757B2, “Heterocycle compounds as Tyro3, Axl and MerTK (TAM) family of receptor tyrosine kinase inhibitors” (Development Center for Biotechnology, priority 2017, dated 2022):

These molecules were tested against Mer kinase (Homo sapiens (Human), UniProt Q12866) (assay: Mer kinase assay (AlphaScreen)). Settings: read-out: Mer kinase IC50; activity level class.
Chain of Mer kinase (Q12866 21-999): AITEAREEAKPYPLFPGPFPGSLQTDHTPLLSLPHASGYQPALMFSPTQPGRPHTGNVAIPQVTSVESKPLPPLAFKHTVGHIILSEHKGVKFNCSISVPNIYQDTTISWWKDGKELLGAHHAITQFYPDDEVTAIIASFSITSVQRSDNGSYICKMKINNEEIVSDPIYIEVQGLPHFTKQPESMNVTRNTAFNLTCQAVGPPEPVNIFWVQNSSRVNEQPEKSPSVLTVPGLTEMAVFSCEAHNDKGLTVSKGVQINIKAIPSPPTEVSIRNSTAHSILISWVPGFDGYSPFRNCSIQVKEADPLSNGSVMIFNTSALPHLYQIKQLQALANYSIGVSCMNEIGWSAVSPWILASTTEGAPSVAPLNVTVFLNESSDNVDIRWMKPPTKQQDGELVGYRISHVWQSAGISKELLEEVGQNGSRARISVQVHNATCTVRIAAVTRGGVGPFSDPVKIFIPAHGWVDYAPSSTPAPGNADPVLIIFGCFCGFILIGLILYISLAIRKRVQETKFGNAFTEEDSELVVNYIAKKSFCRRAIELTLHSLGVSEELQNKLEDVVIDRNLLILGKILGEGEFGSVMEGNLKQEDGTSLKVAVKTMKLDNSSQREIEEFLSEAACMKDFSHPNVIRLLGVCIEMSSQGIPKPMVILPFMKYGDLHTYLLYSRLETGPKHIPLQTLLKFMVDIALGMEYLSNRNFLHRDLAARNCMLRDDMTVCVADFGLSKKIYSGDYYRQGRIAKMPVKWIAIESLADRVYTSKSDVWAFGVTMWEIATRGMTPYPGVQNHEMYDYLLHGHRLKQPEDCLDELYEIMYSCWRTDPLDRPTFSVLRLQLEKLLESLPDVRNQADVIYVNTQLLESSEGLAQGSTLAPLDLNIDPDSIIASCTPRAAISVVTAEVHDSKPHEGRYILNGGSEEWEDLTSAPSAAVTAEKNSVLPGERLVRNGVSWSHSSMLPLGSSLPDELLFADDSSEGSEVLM
In the case of `COc1nc(Nc2ccc(CN3CCOCC3)cc2)nc2[nH]cc(-c3ccc(S(=O)(=O)N(C)C)cc3)c12` [Compound 7, 4-(4-methoxy-2-((4-(morpholinomethyl)phenyl)amino)-7H-pyrrolo[2,3-d]pyrimidin-5-yl)-N,N-dimethylbenzene-sulfonamide], the IC50 is reported as over 1000 nM.
`COc1ccc(-c2c[nH]c3nc(Nc4ccc(CN5CCN(C)CC5)cc4)nc(OC)c23)cc1` [Compound 20, 4-methoxy-5-(4-methoxyphenyl)-N-(4-((4-methylpiperazin-1-yl)methyl)phenyl)-7H-pyrrolo[2,3-d] pyrimidin-2-amine] was tested, and the IC50 was over 1000 nM.
Molecule `COc1nc(Nc2ccc(CN3CCC(C)CC3)cc2)nc2[nH]cc(-c3ccc(NC(=O)c4cc(C)n(C)n4)cc3)c12` [Compound 26, N-(4-(4-methoxy-2-((4-((4-methylpiperidin-1-yl)methyl)phenyl)amino)-7H-pyrrolo[2,3-d]pyrimidin-5-yl)phenyl)-1,5-dimethyl-7H-pyrazole-3-carboxamide] has an IC50 of over 1000 nM.
For `COc1cc(-c2c[nH]c3nc(Nc4ccc(CN5CCC(C)CC5)cc4)nc(OC)c23)ccc1OCc1ccccc1` [Compound 44, 5-(4-(benzyloxy)-3-methoxyphenyl)-4-methoxy-N-(4-((4-methylpiperidin-1-yl)methyl)phenyl)-7H-pyrrolo[2,3-d] pyrimidin-2-amine], the IC50 was over 1000 nM.
`COc1nc(Nc2ccc(CN3CCN(C)CC3)cc2)nc2[nH]cc(-c3ccc(OCc4ccccc4)cc3F)c12` [Compound 46, 5-(4-(benzyloxy)-2-fluorophenyl)-4-methoxy-N-(4-((4-methylpiperazin-1-yl)methyl)phenyl)-7H-pyrrolo[2,3-d]pyrimidin-2-amine] gave an IC50 of over 1000 nM.
`COCCOc1nc(Nc2ccc(CN3CCN(C)CC3)cc2)nc2[nH]cc(-c3ccc(C(F)(F)F)cc3)c12` [Compound 84, 4-(2-methoxyethoxy)-N-(4-((4-methylpiperazin-1-yl)methyl)phenyl)-5-(4-(trifluoromethyl)phenyl)-7H-pyrrolo[2,3-d]pyrimidin-2-amine] gave an IC50 of over 1000 nM.
Molecule `CCN(CC)S(=O)(=O)c1ccc(-c2c[nH]c3nc(Nc4ccc(CN5CCN(C)CC5)cc4)nc(OCCOC)c23)cc1` [Compound 86, N,N-diethyl-4-(4-(2-methoxyethoxy)-2-((4-((4-methylpiperazin-1-yl)methyl)phenyl)amino)-7H-pyrrolo[2,3-d]pyrimidin-5-yl)benzenesulfonamide] has an IC50 of over 1000 nM.
Work on `COCCOc1nc(Nc2ccc(CN3CCN(C)CC3)cc2)nc2[nH]cc(-c3ccc(S(=O)(=O)N4CC(C)CC(C)C4)cc3)c12` (centres unmarked) [Compound 87, 5-(4-((3,5-dimethylpiperidin-1-yl)sulfonyl)phenyl)-4-(2-methoxyethoxy)-N-(4-((4-methylpiperazin-1-yl)methyl)phenyl)-7H-pyrrolo[2,3-d]pyrimidin-2-amine] yielded an IC50 of over 1000 nM.
In the case of `COCCOc1nc(Nc2ccc(CN3CCN(C)CC3)cc2)nc2[nH]cc(-c3ccc(S(=O)(=O)N4CCOCC4)cc3)c12` [Compound 88, 4-(2-methoxyethoxy)-N-(4-((4-methylpiperazin-1-yl)methyl)phenyl)-5-(4-(morpholinosulfonyl)phenyl)-7H-pyrrolo[2,3-d]pyrimidin-2-amine], the IC50 is reported as over 1000 nM.
Molecule `COCCOc1nc(Nc2ccc(CN3CCN(C)CC3)cc2)nc2[nH]cc(-c3ccc(S(=O)(=O)C(C)C)cc3)c12` [Compound 89, 5-(4-(isopropylsulfonyl)phenyl)-4-(2-methoxyethoxy)-N-(4-((4-methylpiperazin-1-yl)methyl)phenyl)-7H-pyrrolo[2,3-d]pyrimidin-2-amine] has an IC50 of over 1000 nM.
`COCCOc1nc(Nc2ccc(CN3CCN(C)CC3)cc2)nc2[nH]cc(-c3ccc(OCc4ccccc4)cc3F)c12` [Compound 90, 5-(4-(benzyloxy)-2-fluorophenyl)-4-(2-methoxyethoxy)-N-(4-((4-methylpiperazin-1-yl)methyl)phenyl)-7H-pyrrolo[2,3-d]pyrimidin-2-amine] was tested, and the IC50 was over 1000 nM.
